Legend:
Experiment in all cases: Transient transfection (transactivation) assay in CV-1 cells, GAL4-PPAR LBD chimera, SPAP reporter
Assay type in all cases: cell-based
[1] = molecular target: T1, hPPAR alpha (Homo sapiens, UniProt Q07869); settings: read-out: EC50 μM HPPARα
T1 construct: expressed in transfected cells; host or cells: CV-1 cells
T1 sequence (Q07869 239-466 limits assumed): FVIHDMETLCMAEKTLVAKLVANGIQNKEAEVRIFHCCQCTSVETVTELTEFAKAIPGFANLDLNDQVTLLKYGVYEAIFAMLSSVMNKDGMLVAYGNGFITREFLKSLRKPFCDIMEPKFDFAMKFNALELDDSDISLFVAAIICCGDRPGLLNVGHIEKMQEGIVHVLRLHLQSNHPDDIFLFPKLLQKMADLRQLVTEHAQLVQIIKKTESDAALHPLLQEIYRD
Source text: (§1) Compounds were screened for functional potency in transient transfection assays in CV-1 cells for their ability to activate the PPAR subtypes (transactivation assay). A previously established chimeric receptor system was utilized to allow comparison of the relative transcriptional activity of the receptor subtypes on the same target gene and to prevent endogenous receptor activation from complicating the interpretation of results. See, for example, Lehmann, J. M.; Moore, L. B.; Smith-Oliver, T. A.; Wilkison, W. O.; Willson, T. M.; Kliewer, S. A., An antidiabetic thiazolidinedione is a high affinity ligand for peroxisome proliferator-activated receptor gamma (PPARgamma), J. Biol. Chem., 270, 12953-6 (1995). The ligand binding domains for murine and human PPAR alpha, PPAR gamma, and PPAR delta were each fused to the yeast transcription factor GAL4 DNA binding domain. CV-1 cells were transiently transfected with expression vectors for the respective PPAR chimera along with a reporter construct containing five copies of the GAL4 DNA binding site driving expression of secreted placental alkaline phosphatase (SPAP) and beta-galactosidase. After 16 h, the medium was exchanged to DME medium supplemented with 10% delipidated fetal calf serum and the test compound at the appropriate concentration. After an additional 24 h, cell extracts were prepared and assayed for alkaline phosphatase and β-galactosidase activity. Alkaline phosphatase activity was corrected for transfection efficiency using the beta-galactosidase activity as an internal standard (see, for example, Kliewer, S. A., et. al. Cell 83, 813-819 (1995)). Rosiglitazone (BRL 49653) was used as a positive control in the hPPAR gamma assay. The positive control in the hPPAR alpha assays was 2-4-[2-(3-[4-fluorophenyl]-1-heptylureido)ethyl]-phenoxy-(2-methyl propionic acid (WO 97/36579). The positive control for PPAR delta assays was 2-{2-methyl-4-[({4-methyl-2-{trifluoromethyl)phenyl]-1,3-thiazol-5-yl}methyl)sulfanyl]phenoxy}acetic acid (WO 01/00603). The positive control was (5-{4-[2-(Methyl-pyridin-2-yl-amino)-ethoxy]-benzyl}-thiazolidine-2,4-dione (J. Med. Chem. 1994, 37(23), 3977), for PPAR gamma.
(§2) Activities in three hPPAR subtypes are reported in the table and are expressed in micromolar.

[2] = molecular target: T2, hPPAR delta (Homo sapiens, UniProt Q03181); settings: read-out: EC50 μM HPPARδ
T2 construct: expressed in transfected cells; host or cells: CV-1 cells
T2 sequence (Q03181 211-439 limits assumed): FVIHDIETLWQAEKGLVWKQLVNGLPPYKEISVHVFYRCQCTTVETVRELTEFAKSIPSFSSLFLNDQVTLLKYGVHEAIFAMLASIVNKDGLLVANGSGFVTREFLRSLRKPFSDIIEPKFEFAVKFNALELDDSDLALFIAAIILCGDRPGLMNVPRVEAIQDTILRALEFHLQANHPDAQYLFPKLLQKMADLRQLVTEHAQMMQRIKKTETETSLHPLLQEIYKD
Source text: as §1, §2

[3] = molecular target: T3, hPPAR gamma (Homo sapiens, UniProt P37231); settings: read-out: EC50 μM HPPARγ
T3 construct: expressed in transfected cells; host or cells: CV-1 cells
T3 sequence (P37231 238-503 limits assumed): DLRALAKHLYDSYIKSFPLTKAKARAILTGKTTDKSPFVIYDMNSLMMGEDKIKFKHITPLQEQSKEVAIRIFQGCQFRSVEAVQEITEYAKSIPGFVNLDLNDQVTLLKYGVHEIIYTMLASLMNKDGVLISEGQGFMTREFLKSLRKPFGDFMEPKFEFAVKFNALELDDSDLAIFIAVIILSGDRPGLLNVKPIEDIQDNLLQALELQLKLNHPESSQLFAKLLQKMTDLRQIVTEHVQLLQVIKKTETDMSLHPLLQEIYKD
Source text: Compounds were screened for functional potency in transient transfection assays in CV-1 cells for their ability to activate the PPAR subtypes (transactivation assay). A previously established chimeric receptor system was utilized to allow comparison of the relative transcriptional activity of the receptor subtypes on the same target gene and to prevent endogenous receptor activation from complicating the interpretation of results. […] The ligand binding domains for murine and human PPAR alpha, PPAR gamma, and PPAR delta were each fused to the yeast transcription factor GAL4 DNA binding domain. CV-1 cells were transiently transfected with expression vectors for the respective PPAR chimera along with a reporter construct containing five copies of the GAL4 DNA binding site driving expression of secreted placental alkaline phosphatase (SPAP) and beta-galactosidase. After 16 h, the medium was exchanged to DME medium supplemented with 10% delipidated fetal calf serum and the test compound at the appropriate concentration. After an additional 24 h, cell extracts were prepared and assayed for alkaline phosphatase and β-galactosidase activity.

| EC50 [1] [µM] | EC50 [2] [µM] | EC50 [3] [µM] | SMILES |
| --- | --- | --- | --- |
| 0.014 | 5.45 |  | Cc1cc(CNC(=O)c2cc(-c3ccc(C(C)(C)C)cc3)n(C)n2)ccc1OC(C)(C)C(=O)O [Example 1, 2-[(4-{[({5-[4-(1,1-dimethylethyl)phenyl]-1-methyl-1H-pyrazol-3-yl)carbonyl)amino]methyl}-2-methylphenyl)oxy]-2-methylpropanoic acid] |
| 0.018 | 0.82 | 0.044 | Cc1cc(CNC(=O)c2cc(-c3ccc(C(C)C)cc3)nn2C)ccc1OC(C)(C)C(=O)O [Example 2] |
| 0.1 | > 10 | 0.212 | C=CCc1cc(CNC(=O)c2cc(-c3ccc(C(C)(C)C)cc3)nn2C)ccc1OC(C)(C)C(=O)O [Example 3] |
| 0.066 | 1.09 | 0.072 | CCCc1cc(CNC(=O)c2cc(-c3ccc(C(C)(C)C)cc3)nn2C)ccc1OC(C)(C)C(=O)O [Example 4, 2-[(4-{[{(3-[4-(1,1-dimethylethyl)phenyl]-1-methyl-1H-pyrazol-5-yl}carbonyl)amino]methyl}-2-propylphenyl)oxy]-2-methylpropanoic acid] |
| 0.301 | > 10 | 0.444 | CCn1nc(-c2ccc(C(C)(C)C)cc2)cc1C(=O)NCc1ccc(OC(C)(C)C(=O)O)c(OC)c1 [Example 5] |
| 0.002 | 2.06 | 0.008 | Cc1cc(CNC(=O)c2cc(-c3ccc(CC(C)C)cc3)n(C)n2)ccc1OC(C)(C)C(=O)O [Example 7, 2-methyl-2-[(2-methyl-4-{[({1-methyl-5-[4-(2-methylpropyl)phenyl]-1H-pyrazol-3-yl}carbonyl)amino]methyl}phenyl)oxy]propanoic acid] |
| 0.051 | 1.07 | 0.059 | Cc1cc(CNC(=O)c2cc(-c3ccc(CC(C)C)cc3)nn2C)ccc1OC(C)(C)C(=O)O [Example 8, 2-methyl-2-[(2-methyl-4-{[({1-methyl-3-[4-(2-methylpropyl)phenyl]-1H-pyrazol-5-yl}carbonyl)amino]methyl}phenyl)oxy]propanoic acid] |
| 2.9 | > 10 | 0.554 | COc1cc(CNC(=O)c2cc(-c3ccc(C(C)C)cc3)nn2C)ccc1OC(C)(C)C(=O)O [Example 10] |
| 0.05 | 2.17 |  | Cc1cc(CNC(=O)c2cc(-c3ccc(C(C)(C)C)cc3)nn2C)ccc1OC(C)(C)C(=O)O [Example 11, 2-[(4-{[({3-[4-(1,1-dimethylethyl)phenyl]-1-methyl-1H-pyrazol-5-yl}carbonyl)amino]methyl}-2-methylphenyl)oxy]-2-methylpropanoic acid] |
| 1.05 | > 10 | 0.432 | COc1cc(CNC(=O)c2cc(-c3ccc(C(C)(C)C)cc3)nn2C)ccc1OC(C)(C)C(=O)O [Example 12, 2-{[4-{[({3-[4-(1,1-dimethylethyl)phenyl]-1-methyl-1H-prazol-5-yl}carbonyl)amino]methyl}-2-(methyloxy)phenyl]oxy}-2-methyl propanoic acid] |
| 0.009 | > 10 | 0.011 | CCn1nc(C(=O)NCc2ccc(OC(C)(C)C(=O)O)c(C)c2)cc1-c1ccc(C(C)(C)C)cc1 [Example 13, 2-[(4-{[({5-[4-(1,1-dimethylethyl)phenyl]-1-ethyl-1H-pyrazol-3-yl}carbonyl)amino]methyl}-2-methylphenyl)oxy]-2-methylpropanoic acid] |
| 0.177 | > 10 | 0.13 | COc1cc(CNC(=O)c2cc(-c3ccc(CC(C)C)cc3)n(C)n2)ccc1OC(C)(C)C(=O)O [Example 14] |
| 0.075 | 2.44 | 0.024 | CCn1nc(-c2ccc(C(C)(C)C)cc2)cc1C(=O)NCc1ccc(OC(C)(C)C(=O)O)c(C)c1 [Example 15, 2-[(4-{[({3-[4-(1,1-dimethylethyl)phenyl]-1-ethyl-1H-pyrazol-5-yl}carbonyl)amino]methyl}-2-methylphenyl)oxy]-2-methyl propanoic acid] |
| 0.163 |  | 1.09 | Cn1nc(-c2ccc(C(C)(C)C)cc2)cc1C(=O)NCc1ccc(OC(C)(C)C(=O)O)cc1 [Example 16, 12-[(4-{[({3-[4-[1,1-dimethylethyl)phenyl]-1-methyl-1H-pyrazol-5-yl}carbonyl)amino]methyl}phenyl)oxy]-2-methylpropanoic acid] |
| 0.07 |  | 0.376 | Cn1nc(C(=O)NCc2ccc(OC(C)(C)C(=O)O)cc2)cc1-c1ccc(C(C)(C)C)cc1 [Example 17] |
| 0.004 | 4.02 | 0.009 | Cc1cc(CNC(=O)c2cc(-c3ccc(C(C)C)cc3)n(C)n2)ccc1OC(C)(C)C(=O)O [Example 18] |
| 0.076 | 1.06 | 0.02 | Cc1cc(CNC(=O)c2cc(-c3ccc(N4CCCC4)cc3)n(C)n2)ccc1OC(C)(C)C(=O)O [Example 20, 2-methyl-2-[(2-methyl-4-{[({1-methyl-5-[4-(1-pyrrolidinyl)phenyl]-1H-pyrazol-3-yl}carbonyl)amino]methyl}phenyl)oxy]propanoic acid] |
| 0.01 | 1.12 | 0.005 | Cc1cc(CNC(=O)c2cc(-c3ccc(N4CCCCC4)cc3)n(C)n2)ccc1OC(C)(C)C(=O)O [Example 21] |
| 0.02 | 1.55 |  | Cc1cc(CNC(=O)c2cc(-c3ccc(-c4ccccc4)cc3)n(C)n2)ccc1OC(C)(C)C(=O)O [Example 22, 2-({4-[({[5-(4-biphenylyl)-1-methyl-1H-pyrazol-3-yl]carbonyl}amino)methyl]-2-methylphenyl}oxy)-2-methylpropanoic acid] |
| 0.067 | 4.33 | 0.779 | Cc1cc(CNC(=O)c2cc(-c3cccc(N4CCCC4)c3)nn2C)ccc1OC(C)(C)C(=O)O [Example 23, 2-methyl-2-[(2-methyl-4-{[({1-methyl-3-[3-(1-pyrrolidinyl)phenyl]-1H-pyrazol 5-yl}carbonyl)amino]methyl}phenyl)oxy]propanoic acid] |
| 0.002 | > 25 | 0.008 | Cc1cc(CNC(=O)c2cc(-c3ccc(C(C)(C)C)cc3)n(C)n2)cc(C)c1OC(C)(C)C(=O)O [Example 25, 2-{4-[({[5-(4-tert-butylphenyl)-1-methyl-1H-pyrazol-3-yl]carbonyl}amino)methyl]-2,6-dimethylphenoxy}-2-methylpropanoic acid] |
| 0.094 |  | 0.028 | C=CCOc1ccc(-c2cc(C(=O)NCc3ccc(OC(C)(C)C(=O)O)c(C)c3)nn2C)cc1 [Example 59, 2-methyl-2-[(2-methyl-4-{[({1-methyl-5-[4-(2-propen-1-yloxy)phenyl]-1H-pyrazol-3-yl}carbonyl)amino]methyl}phenyl)oxy]propanoic acid] |

From patent US20080021030A1, “Substituted Pyrazoles As Ppar Agonists” (priority 2003, published 2008)
